Laboratory results published in patent US11603368B2, “Fused thiophene derivatives and their uses” (ENYO PHARMA, priority 2018, dated 2023).
Counter-ions that a name gives are not always drawn.

What was measured:
[1] = system: H1N1 (influenza A/New Caledonia/20/99); test: Antiviral effect on A549 cells infected with H1N1; format: cell-based, H1N1 A/New Caledonia/20/99 virus; conditions: Human A549 cells, MOI of 0.1, 48 h post-infection, MUNANA hydrolysis readout
Description: The antiviral effect of the compounds of the invention has been tested on A549 cell lines infected with H1N1 (influenza A/New Caledonia/20/99).
Human A549 cells (80,000 cells/well in a 96 well plate) were treated with a range of concentration of test molecules and immediately infected by H1N1 A/New Caledonia/20/99 virus (clinical isolate) at MOI of 0.1 in DMEM/1% Penicillin/streptomycin supplemented with 0.25 μg/ml TPCK trypsin (Sigma) and incubated at 37° C. in 5% CO2. 48 h post-infection, supernatants (25 μl) were collected and transferred into a 96-well black flat-bottom plate, mixed with 25 μl PBS with Ca++/Mg++(Thermo Fisher) and 50 μl of 2′-(4-Methylumbelliferyl)-α-D-N-acetylneuraminic acid sodium salt hydrate stock-solution (20 μM, MUNANA, Sigma). Plates were incubated 1 h at 37° C. and reaction is stopped by adding 100 μl of Stop Solution (glycine 0.1 M pH10.7/25% ethanol). The amount of fluorescent product released by MUNANA hydrolysis (4-MU) was measured in a Tecan spectrophotometer with excitation and emission wavelengths of 365 and 450 nm respectively.

[2] = molecular target: T1, CISD1 Gene Product (mitoNEET) (Homo sapiens, UniProt Q9NZ45); test: Stability of Fe—S cluster binding of purified NEET protein mitoNEET; format: biochemical; conditions: for Time (in minutes) to achieve 50% loss of bound cluster (Absorbance 458 nm), CISD1 Gene Product (mitoNEET) / Residual cluster bound at end of experiment (Percentage Absorbance 458 nm at time zero), CISD1 Gene Product (mitoNEET): pH 6, 37° C., 1:3 protein:compound molar ratio; for Time (in minutes) to achieve 50% loss of bound cluster (Absorbance 458 nm), CISD1 Gene Product (mitoNEET): 6 μM compound, run time 180 minutes, Vehicle Control 80; for Residual cluster bound at end of experiment (Percentage Absorbance 458 nm at time zero), CISD1 Gene Product (mitoNEET): end of 180 minutes, Vehicle Control 16%; for stabiliser or destabiliser of Fe—S cluster binding, CISD1 Gene Product (mitoNEET): time to 50% Fe—S cluster bound loss changed by more than 25% vs Control sample, at the concentrations tested
T1 sequence (Q9NZ45 33-108 limits assumed): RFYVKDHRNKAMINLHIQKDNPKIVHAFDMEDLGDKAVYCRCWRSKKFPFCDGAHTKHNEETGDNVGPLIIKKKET
Description: (§1) The modulator effect on the NEET proteins encoded by human CISD1, CISD2, and CISD3 genes by the compounds of the invention has been tested and is reported below. Particularly, the biochemical function of the NEET proteins is measured by the stability of Fe—S cluster binding of the purified NEET proteins.
(§2) The Fe—S cluster binding capacity of NEET proteins is known to be coordinated by four amino-acids in a stretch of 16 (three Cysteine and one Histidine). As the lability of the Fe—S cluster of NEET proteins is sensitive to the environment, cluster stability measurements are one of the measures of interactions of NEET proteins with small molecules and compounds. NEET protein/2Fe-2S cluster stability can be assessed by monitoring the decay in absorbance of its characteristic 458-nm peak (characteristic of the oxidized 2Fe-2S cluster) over time. Each NEET protein (mitoNEET, NAF-1 and Miner 2) was tested for its Fe—S binding in the absence or presence of a compound according to the invention (see table 2 below). The rate of cluster release (time in minutes to achieve 50% loss of bound Fe—S cluster) was compared for each NEET protein in the presence of one of the compounds of the invention (in a 1:3 protein:compound molar ratio) relative to each protein alone.
(§3) At pH 6, all the three NEET proteins (mitoNEET, NAF-1 and Miner 2) have a characteristic rate of loss of the bound Fe—S cluster that can be measured by the decrease of absorbance at wavelength 458 nm over time, using a spectrophotometer. Thus, Bis-Tris buffer (100 mM Bis-Tris pH6, 100 mM Nacl) was used at pH 6 to dilute either DMSO (Blank sample: Bis-Tris Buffer pH 6, 6 μM DMSO), DMSO and one of the three NEET proteins (Control sample: Bis-Tris Buffer pH 6, 6 μM DMSO, 2 μM purified NEET protein) or DMSO, one of the three NEET proteins and a compound of the invention (Test sample: Bis-Tris Buffer pH 6, 6 μM DMSO, […], 6 μM compound of the invention).
(§4) A reaction mix containing DMSO diluted in the Bis-Tris Buffer with or without a compound of the invention was prepared. The purified NEET protein was the last component added to the reaction mix which was then aliquoted into 4 replicates in 96 wells plates. The absorbance at wavelength 458 nm was taken at 5 minutes intervals at 37° C. with a spectrofluorimeter. The assay run time for CISD2 gene product (NAF-1) was 500 minutes and 180 minutes for both the CISD 1 gene product (mitoNEET) and the CISD3 gene product (Miner 2).
(§5) In addition to time monitoring, residual bound Fe—S cluster to NEET protein was measured at the final point of the spectrometry assay for each Test sample and compared to the Control sample data (in parenthesis table 2). This residual binding is measured by the differential percentage between the absorbance 458 nm at time zero and the absorbance 458 nm at the end of the experiment (i.e. respectively 500 or 180 minutes as described hereabove), showing the percentage of NEET protein still able to bind a Fe—S cluster.
(§6) Analysis of the absorbance enables the time for which 50% loss of bound Fe—S cluster is reached (i.e. a 50% absorbance decrease at 458 nm) for each Test sample and each Control sample (in parenthesis table 2) to be determined. The data are then compared to determine whether the compound of the invention stabilizes or destabilizes the NEET protein/Fe—S cluster binding.

[3] = molecular target: T2, CISD2 Gene Product (NAF-1) (Homo sapiens, UniProt Q8N5K1); test: Stability of Fe—S cluster binding of purified NEET protein NAF-1; format: biochemical; conditions: for Time (in minutes) to achieve 50% loss of bound cluster (Absorbance 458 nm), CISD2 Gene Product (NAF-1) / Residual cluster bound at end of experiment (Percentage Absorbance 458 nm at time zero), CISD2 Gene Product (NAF-1): pH 6, 37° C., 1:3 protein:compound molar ratio; for Time (in minutes) to achieve 50% loss of bound cluster (Absorbance 458 nm), CISD2 Gene Product (NAF-1): 6 μM compound, run time 500 minutes, Vehicle Control 310; for Residual cluster bound at end of experiment (Percentage Absorbance 458 nm at time zero), CISD2 Gene Product (NAF-1): end of 500 minutes, Vehicle Control 3%; for stabiliser or destabiliser of Fe—S cluster binding, CISD2 Gene Product (NAF-1): time to 50% Fe—S cluster bound loss changed by more than 25% vs Control sample, at the concentrations tested
T2 sequence (Q8N5K1 57-135 limits assumed): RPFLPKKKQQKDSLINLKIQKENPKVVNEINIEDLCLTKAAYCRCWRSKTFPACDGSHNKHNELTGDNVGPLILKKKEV
Description: as §1, §2, §3, §4, §5, §6

[4] = molecular target: T3, CISD3 Gene Product (Miner2) (Homo sapiens, UniProt P0C7P0); test: Stability of Fe—S cluster binding of purified NEET protein Miner2; format: biochemical; conditions: for Time (in minutes) to achieve 50% loss of bound cluster (Absorbance 458 nm), CISD3 Gene Product (Miner2) / Residual cluster bound at end of experiment (Percentage Absorbance 458 nm at time zero), CISD3 Gene Product (DMSO 11%): pH 6, 37° C., 1:3 protein:compound molar ratio; for Time (in minutes) to achieve 50% loss of bound cluster (Absorbance 458 nm), CISD3 Gene Product (Miner2): 6 μM compound, run time 180 minutes, Vehicle Control 60; for Residual cluster bound at end of experiment (Percentage Absorbance 458 nm at time zero), CISD3 Gene Product (DMSO 11%): end of 180 minutes, Vehicle Control 11%; for stabiliser or destabiliser of Fe—S cluster binding, CISD3 Gene Product (Miner2): time to 50% Fe—S cluster bound loss changed by more than 25% vs Control sample, at the concentrations tested
T3 sequence (P0C7P0 15-127): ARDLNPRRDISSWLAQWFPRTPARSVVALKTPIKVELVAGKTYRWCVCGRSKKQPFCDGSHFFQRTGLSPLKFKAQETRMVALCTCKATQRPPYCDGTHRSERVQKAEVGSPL
Description: as §1, §2, §3, §4, §5, §6

[5] = Influenza A virus, H1N1, A549, 48 h

Row | Structure (SMILES) | Time (in minutes) to achieve 50% loss of bound cluster (Absorbance 458 nm), CISD1 Gene Product (mitoNEET) [2] [min] | Residual cluster bound at end of experiment (Percentage Absorbance 458 nm at time zero), CISD1 Gene Product (mitoNEET) [2] [%] | Time (in minutes) to achieve 50% loss of bound cluster (Absorbance 458 nm), CISD2 Gene Product (NAF-1) [3] | Residual cluster bound at end of experiment (Percentage Absorbance 458 nm at time zero), CISD2 Gene Product (NAF-1) [3] [%] | Time (in minutes) to achieve 50% loss of bound cluster (Absorbance 458 nm), CISD3 Gene Product (Miner2) [4] | Residual cluster bound at end of experiment (Percentage Absorbance 458 nm at time zero), CISD3 Gene Product (DMSO 11%) [4] [%] | IC50 [1, 5] [nM] | other results
1 | O=C(Nc1sc2c(c1C(=O)O)CCC(c1ccccc1)C2)c1ccccc1 (centres unmarked) [#46] | 80 | 18 | 90 min | 14 | 60 min | 13 | – | IC50 [1]: 150 nM; stabiliser or destabiliser of Fe—S cluster binding, CISD2 Gene Product (NAF-1) [3]: destabilisers
2 | O=C(Nc1sc2c(c1C(=O)O)CCN(c1ccccc1)C2)c1ccccc1 [#52] | 100 | 47 | during 500 minutes | 50 | during 180 minutes | 54 | 90 | stabiliser or destabiliser of Fe—S cluster binding, CISD1 Gene Product (mitoNEET) [2]: stabilisers; stabiliser or destabiliser of Fe—S cluster binding, CISD2 Gene Product (NAF-1) [3]: Stabilisers; stabiliser or destabiliser of Fe—S cluster binding, CISD3 Gene Product (Miner2) [4]: Stabilisers
3 | COc1ccc(C(=O)Nc2sc3c(c2C(=O)O)CCN(c2ccc(F)cc2C)C3)cc1OC [#54] | 105 | 35 | 305 min | 31 | 85 min | 41 | 60 | stabiliser or destabiliser of Fe—S cluster binding, CISD1 Gene Product (mitoNEET) [2]: stabilisers; stabiliser or destabiliser of Fe—S cluster binding, CISD3 Gene Product (Miner2) [4]: Stabilisers
4 | CC(C)(C)C1CCc2c(sc(NC(=O)c3ccccc3)c2C(=O)O)C1 (centres unmarked) [#71] | 100 | 34 | 125 min | 15 | 70 min | 42 | – | IC50 [1]: 160 nM; stabiliser or destabiliser of Fe—S cluster binding, CISD1 Gene Product (mitoNEET) [2]: stabilisers; stabiliser or destabiliser of Fe—S cluster binding, CISD2 Gene Product (NAF-1) [3]: destabilisers
5 | CC(C)(C)C1CCc2c(sc(NC(=O)c3ccc(OCCCN)cc3)c2C(=O)O)C1 (centres unmarked) [#124, hydrochloride salt] | – | – | – | – | – | – | 2700 | –
6 | CC(C)(C)C1CCc2c(sc(NC(=O)Cc3ccccc3)c2C(=O)O)C1 (centres unmarked) [#125] | – | – | – | – | – | – | 2800 | –
7 | Cc1ccccc1C(=O)Nc1sc2c(c1C(=O)O)CCN(C(=O)OC(C)(C)C)C2 [#126] | – | – | – | – | – | – | 2900 | –
8 | Cc1ccccc1C(=O)Nc1sc2ccccc2c1C(=O)O [#128] | – | – | – | – | – | – | 5000 | –
9 | Cc1ccccc1C(=O)Nc1sc2c(c1C(=O)O)CCN(CC(C)C)C2 [#129, formate salt] | – | – | – | – | – | – | 16600 | –
10 | COC(=O)CCCCCOc1ccc(C(=O)Nc2sc3c(c2C(=O)O)CCC(C(C)(C)C)C3)cc1 (centres unmarked) [#172] | – | – | – | – | – | – | 510 | –
11 | CC1(C)Cc2c(sc(NC(=O)c3ccccc3)c2C(=O)O)C(C)(C)O1 [#175] | – | – | – | – | – | – | 740 | –
12 | COC1CN(c2ccc(C(=O)Nc3sc4c(c3C(=O)O)CCC4)cc2)C1 [#207] | – | – | – | – | – | – | 380 | –
